Experiments:
[1] = test system: human pancreatic MiaPaCa-2 cells; assay: Tumor cell proliferation assay (ATP Lite), MiaPaCa-2; assay type: cell-based; details: MIA PaCa-2, 96 h, 4 days
Outline: (§1)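 Cells seeded at 1500/well (C26) or 2000/well (A375, MiaPaCa-2) grew overnight, then were exposed to serially diluted compounds (0.25% DMSO final) for 4 days in serum-containing DMEM or RPMI. Viability read by ATPlite luminescence; IC50 is the concentration giving 50% cell death.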

[2] = test system: human melanoma A375 cells; assay: Tumor cell proliferation assay (ATP Lite), A375; assay type: cell-based; details: A-375, 96 h, 4 days
Outline: as §1

[3] = test system: Murine colon C26 cells; assay: Tumor cell proliferation assay (ATP Lite), C26; assay type: cell-based; details: Mus musculus, 96 h, 4 days
Outline: as §1

[4] = target: human MEK1 (Homo sapiens, UniProt Q02750); assay: MEK-1 Enzyme Assay (LANCE-HTRF); assay type: biochemical; details: 100 nM MEK1, 15 μM ATP, 300 nM ERK2, two hours; read-out: MEK inhibition
Outline: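 TR-FRET readout of MEK1-catalysed ERK1 phosphorylation; after a 2 h reaction, Eu-anti-PY20 (5 nM) and anti-GST-APC (50 nM) were added in buffer with 50 mM EDTA and 0.05% BSA, then incubated 1 h in the dark.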

Chain of human MEK1 (Q02750 whole entry): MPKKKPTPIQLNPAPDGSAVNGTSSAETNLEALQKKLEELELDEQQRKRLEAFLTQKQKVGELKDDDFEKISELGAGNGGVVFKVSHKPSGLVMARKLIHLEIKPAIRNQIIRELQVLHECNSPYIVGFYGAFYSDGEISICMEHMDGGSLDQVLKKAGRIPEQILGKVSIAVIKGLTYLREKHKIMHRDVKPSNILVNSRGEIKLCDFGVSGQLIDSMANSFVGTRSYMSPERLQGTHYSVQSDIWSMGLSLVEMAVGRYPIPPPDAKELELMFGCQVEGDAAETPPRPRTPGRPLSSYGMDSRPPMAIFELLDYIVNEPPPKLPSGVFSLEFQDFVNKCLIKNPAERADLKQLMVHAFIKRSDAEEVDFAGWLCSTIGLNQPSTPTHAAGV

Row | IC50 [1] [µM] | IC50 [2] [µM] | IC50 [3] [µM] | IC50 [4] [µM] | SMILES
1 | 3 to 10 | ≤ 3 | 3 to 10 | < 1 | CC(=O)NCCNC(=O)c1ccncc1Nc1ccc(I)cc1Cl [Example 64, N-(2-Acetylamino-ethyl)-3-(2-chloro-4-iodo-phenylamino)-isonicotinamide]
2 | ≤ 3 | ≤ 3 | ≤ 3 | < 1 | CNC(=O)c1ccncc1Nc1ccc(I)cc1Cl [Example 22, 3-[(2-chloro-4-iodophenyl)amino]-N-methylisonicotinamide]
3 | ≤ 3 | ≤ 3 | 3 to 10 | < 1 | NNC(=O)c1ccncc1Nc1ccc(I)cc1F [Example 51, 3-[(2-fluoro-4-iodophenyl)amino]isonicotinohydrazide]
4 | ≤ 3 | ≤ 3 | ≤ 3 | < 1 | O=C(NCCCCCO)c1ccncc1Nc1ccc(I)cc1Cl [Example 36, 3-(2-Chloro-4-iodo-phenylamino)-N-(5-hydroxy-pentyl)-isonicotinamide]
5 | ≤ 3 | ≤ 3 | ≤ 3 | < 1 | NC(=O)c1ccnc(Cl)c1Nc1ccc(I)cc1F [Example 31, 2-Chloro-3-(2-fluoro-4-iodo-phenylamino)-isonicotinamide]
6 | 3 to 10 | ≤ 3 | 3 to 10 | < 1 | O=C(NCCO)c1cc(Br)ncc1Nc1ccc(I)cc1F [Example 74, 2-Bromo-5-(2-fluoro-4-iodo-phenylamino)-N-(2-hydroxy-ethyl)-isonicotinamide]
7 | 3 to 10 | ≤ 3 | 3 to 10 | < 1 | CC(C)(C)OC(=O)NNC(=O)c1ccncc1Nc1ccc(I)cc1F [Example 45, tert-butyl 2-{3-[(2-fluoro-4-iodophenyl)amino]-isonicotinoyl}hydrazine-carboxylate]
8 | ≤ 3 | ≤ 3 | ≤ 3 | < 1 | O=C(NC1CC1)c1ccncc1Nc1ccc(I)cc1F [Example 47, N-cyclopropyl-3-[(2-fluoro-4-iodophenyl)amino]isonicotinamide]
9 | 3 to 10 | ≤ 3 | 3 to 10 | < 1 | O=C(NNc1nccc(C(F)(F)F)n1)c1ccncc1Nc1ccc(I)cc1F [Example 50, 3-[(2-fluoro-4-iodophenyl)amino]-N′-[4-(trifluoromethyl)pyrimidin-2-yl]isonicotinohydrazide]
10 | 3 to 10 | ≤ 3 | 3 to 10 | < 1 | Cc1ccc(CCNC(=O)c2ccncc2Nc2ccc(I)cc2F)cc1 [Example 85, 3-[(2-fluoro-4-iodophenyl)amino]-N-[2-(4-methylphenyl)-ethyl]isonicotinamide]
11 | 3 to 10 | ≤ 3 | 3 to 10 | < 1 | O=C(NCCOc1ccccc1)c1ccncc1Nc1ccc(I)cc1F [Example 26, 3-[(2-fluoro-4-iodophenyl)amino]-N-(2-phenoxyethyl)-isonicotinamide]
12 | ≤ 3 | ≤ 3 | ≤ 3 | < 1 | NC(=O)c1ccncc1Nc1ccc(I)cc1F [Example 12, 3-[(2-fluoro-4-iodophenyl)amino]isonicotinamide]
13 | ≤ 3 | ≤ 3 | ≤ 3 | < 1 | O=C(NCCN1CCOCC1)c1ccncc1Nc1ccc(I)cc1F [Example 13, 3-(2-Fluoro-4-iodo-phenylamino)-N-(2-morpholin-4-yl-ethyl)-isonicotinamide]
14 | 3 to 10 | ≤ 3 | 3 to 10 | < 1 | O=C(O)c1ccc(CCNC(=O)c2ccncc2Nc2ccc(I)cc2F)cc1 [Example 102, 4-[2-({3-[(2-fluoro-4-iodophenyl)amino]isonicotinoyl}-amino)ethyl]benzoic acid]

From patent publication US8524911B2, “3-arylamino pyridine derivatives” (Merck Serono SA, priority 2004, dated 2013)
